Experimental data taken from paper PMC8373216, “Development and Preclinical Evaluation of New Inhaled Lipoglycopeptides for the Treatment of Persistent Pulmonary Methicillin-Resistant Staphylococcus aureus Infections” (Antimicrobial Agents and Chemotherapy, 2021).
Values after ≈ are worked out from the molar mass of the structure shown. Like-named read-outs stand apart in the source and are kept apart here.

How the values were obtained:
[1] = tested on: MRSA ATCC BAA 1556 (USA300) biofilm; experiment: MRSA biofilm killing, MBEC assay system, TSB with 1% human plasma; conditions: MBEC
Streptococcus pneumoniae = experiment: Expanded panel broth microdilution MIC/MBC; assay type: cell-based
[2] = tested on: Staphylococcus lugdunensis; experiment: Expanded panel broth microdilution MIC; assay type: cell-based
Cutibacterium acnes = experiment: Expanded panel broth microdilution MIC; assay type: cell-based
E. coli = experiment: Expanded panel broth microdilution MIC; assay type: cell-based; conditions: Escherichia coli, read-out: MIC
[3] = tested on: MRSA ATCC BAA 1556 (USA300); experiment: In-house broth microdilution MIC screening; assay type: cell-based, Staphylococcus aureus; conditions: Staphylococcus aureus; broth microdilution; read-out: MIC Value, MRSA ATCC BAA 1556
Clostridium. perfringens = experiment: microbe, parasite or virus in culture; assay type: cell-based
Streptococcus agalactiae = experiment: Expanded panel broth microdilution MIC/MBC; assay type: cell-based; conditions: for MIC: Streptococcus agalactiae
Streptococcus oralis = experiment: Expanded panel broth microdilution MIC; assay type: cell-based
[4] = tested on: Streptococcus dysgalactiae; experiment: Expanded panel broth microdilution MIC/MBC; assay type: cell-based; conditions: for MIC: Streptococcus dysgalactiae
[5] = tested on: Staphylococcus haemolyticus; experiment: Expanded panel broth microdilution MIC; assay type: cell-based
[6] = tested on: MRSA (ATCC BAA 1556; USA300); experiment: Acute pulmonary MRSA infection in neutropenic rats, nebulized nose-only inhalation; assay type: in vivo, Staphylococcus aureus; conditions: inhaled at 24 and 32 h postinfection, lungs at 48 h, RV40 14.4 mg/kg, RV94 18.8 mg/kg delivered
Description: Rats were rendered neutropenic with intraperitoneal (i.p.) cyclophosphamide on day −4 (150 mg/kg) and day −1 (100 mg/kg) relative to the challenge. On day 0 at 0 h, rats were challenged with MRSA via intranasal instillation at a target titer of 8.0 to 8.3 log10 CFU. At 24 and 32 h postchallenge, rats were loaded into a 12-port inhalation dosing tower, where they received nebulized drug or vehicle control treatments by nose-only inhalation. Animals were euthanized at 48 h postinfection for enumeration of lung MRSA titer. MRSA lung titer of test article treatments versus control is plotted for three separate experiments. […] Statistics are based on the Kolmogorov-Smirnov test for drug treatment versus control (RV94, P = 0.01). LOD = 2.1 log10 CFU/lungset.
Male Sprague Dawley rats (Envigo, Indianapolis, IN) weighing between 225 and 250 g were used in these studies. Rats were housed and acclimated to the study facility as described in the PK methods section. Rats were rendered neutropenic through a series of intraperitoneal cyclophosphamide (Sigma-Aldrich) injections on day −4 (150 mg/kg) and day −1 (100 mg/kg) relative to the challenge. On day 0 at 0 h, rats were challenged with MRSA ATCC BAA 1556 via intranasal instillation at a target titer of 8.0 to 8.3 log10 CFU using optical density and back-counting inoculum CFU. To prepare the inoculum, a frozen aliquot of the organism stored at −80°C was thawed, transferred into TSB, and incubated at 37°C while shaking for 16 h. Cultures were then centrifuged at 2,000 × g for 5 min, and the resulting pellet was resuspended in PBS and equilibrated. For the challenge procedure, rats were first anesthetized through use of 2 to 5% isoflurane in 100% oxygen, then restrained with a scruff grip and a total of 200 μl of inoculum was quickly introduced to one nare. The rat was held in a vertical position until the challenge was fully inhaled. Rats were monitored following challenge to ensure that normal respiration was achieved and then returned to their cage. […] At necropsy, whole lungs were aseptically removed and lung weights were recorded. […]

Acinetobacter baumannii = experiment: Expanded panel broth microdilution MIC; assay type: cell-based; conditions: Acinetobacter baumannii; for MIC: read-out: MIC
[7] = tested on: Peptostreptococcus anaerobius; experiment: Expanded panel broth microdilution MIC; assay type: cell-based
Staphylococcus hominis = experiment: Expanded panel broth microdilution MIC; assay type: cell-based
Clostridioides difficile = experiment: Expanded panel broth microdilution MIC; assay type: cell-based
Streptococcus mitis = experiment: Expanded panel broth microdilution MIC/MBC; assay type: cell-based; conditions: for MIC: Streptococcus mitis
[8] = tested on: Staphylococcus epidermidis; experiment: Expanded panel broth microdilution MIC/MBC; assay type: cell-based; conditions: for MIC: Staphylococcus epidermidis

## CCCCCCCCCCNCCN[C@@]1(C)C[C@H](O[C@H]2[C@H](Oc3c4cc5cc3Oc3ccc(cc3Cl)[C@@H](O)[C@@H](NC(=O)[C@@H](CC(C)C)NC)C(=O)N[C@@H](CC(N)=O)C(=O)N[C@H]5C(=O)N[C@H]3C(=O)N[C@H](C(=O)N[C@H](C(=O)O)c5cc(O)cc(O)c5-c5cc3ccc5O)[C@H](O)c3ccc(c(Cl)c3)O4)O[C@H](CO)[C@@H](O)[C@@H]2O)O[C@@H](C)[C@H]1O [RV40, N-decylaminoethylvancomycin]
[1]; 128 μg/ml
  Reduction in MRSA biofilm titer compared to untreated biofilm: 4 log10 CFU/peg
[1]; two-way ANOVA, Bonferroni
  Concentrations with statistically significant reduction versus control biofilm: ≥ 4 µg/mL
Streptococcus pneumoniae; S. pneumoniae PISP, MBC on one organism
  MIC:MBC: 1
Streptococcus pneumoniae; S. pneumoniae PRSP, 1 isolate
  MIC: ≤0.008 µg/mL
Streptococcus pneumoniae; Streptococcus pneumoniae, ATCC49619, S. pneumoniae ATCC 49619, PISP, read-out: MIC
  MIC: 0.004 µg/mL (≈ 2.45 nM)
Streptococcus pneumoniae; Streptococcus pneumoniae, S. pneumoniae MMX 432, PRSP, read-out: MIC
  MIC: ≤ 0.008 µg/mL
Streptococcus pneumoniae; Streptococcus pneumoniae, S. pneumoniae MMX 747, PISP, read-out: MIC
  MIC: 0.004 µg/mL (≈ 2.45 nM)
Streptococcus pneumoniae; Streptococcus pneumoniae, S. pneumoniae PISP, 2 isolates, read-out: MIC (median)
  MIC: 0.004 µg/mL (≈ 2.45 nM)
[2]; S. lugdunensis, 1 isolate
  MIC: 0.004 µg/mL (≈ 2.45 nM)
[2]; Staphylococcus lugdunensis, S. lugdunensis MMX 8724, read-out: MIC
  MIC: 0.004 µg/mL (≈ 2.45 nM)
Cutibacterium acnes; ATCC6919, P. acnes ATCC 6919, read-out: MIC
  MIC: 0.008 µg/mL (≈ 4.9 nM)
Cutibacterium acnes; ATCC11827, P. acnes ATCC 11827, read-out: MIC
  MIC: 0.008 µg/mL (≈ 4.9 nM)
Cutibacterium acnes; C. acnes, 2 isolates, read-out: MIC (median)
  MIC: 0.008 µg/mL (≈ 4.9 nM)
E. coli; ATCC25922, E. coli ATCC 25922, non-ESBL
  MIC: > 64 µg/mL
E. coli; E. coli MMX 5684, ESBL (TEM-10)
  MIC: > 64 µg/mL
[3]
  MIC: 0.016 µg/mL (≈ 9.8 nM)
Clostridium. perfringens
  MIC: 0.015 µg/mL (≈ 9.19 nM)
Clostridium. perfringens; ATCC13124
  MIC: 0.015 µg/mL (≈ 9.19 nM)
Streptococcus agalactiae; S. agalactiae, MBC on one organism
  MIC:MBC: 1
Streptococcus agalactiae; ATCC13813, S. agalactiae ATCC 13813, read-out: MIC
  MIC: 0.008 µg/mL (≈ 4.9 nM)
Streptococcus agalactiae; S. agalactiae MMX 4088, read-out: MIC
  MIC: 0.008 µg/mL (≈ 4.9 nM)
Streptococcus agalactiae; S. agalactiae MMX 4115, ermR, read-out: MIC
  MIC: 0.008 µg/mL (≈ 4.9 nM)
Streptococcus agalactiae; S. agalactiae ermR, 1 isolate, read-out: MIC
  MIC: 0.008 µg/mL (≈ 4.9 nM)
Streptococcus agalactiae; S. agalactiae, 2 isolates, read-out: MIC (median)
  MIC: 0.008 µg/mL (≈ 4.9 nM)
Streptococcus oralis; S. oralis MGS, 1 isolate
  MIC: 0.015 µg/mL (≈ 9.19 nM)
Streptococcus oralis; Streptococcus oralis, S. oralis (MGS) MMX 5821, read-out: MIC
  MIC: 0.015 µg/mL (≈ 9.19 nM)
[4]; S. dysgalactiae, MBC on one organism
  MIC:MBC: 1
[4]; S. dysgalactiae MMX 5121, read-out: MIC
  MIC: 0.008 µg/mL (≈ 4.9 nM)
[4]; S. dysgalactiae MMX 5123, read-out: MIC
  MIC: 0.12 µg/mL (≈ 73.5 nM)
[4]; S. dysgalactiae MMX 5124, read-out: MIC
  MIC: 0.015 µg/mL (≈ 9.19 nM)
[4]; S. dysgalactiae, 3 isolates, read-out: MIC (median)
  MIC: 0.015 µg/mL (≈ 9.19 nM)
[5]; ATCC29970, S. haemolyticus ATCC 29970, read-out: MIC
  MIC: 0.015 µg/mL (≈ 9.19 nM)
[5]; S. haemolyticus, 1 isolate, read-out: MIC
  MIC: 0.015 µg/mL (≈ 9.19 nM)
[6]
  Average reduction in lung MRSA titer versus vehicle control: 0.8 log10 CFU
Acinetobacter baumannii
  MIC range: 32 to 64 µg/mL
Acinetobacter baumannii; A. baumannii MMX 3372, MDR
  MIC: 64 µg/mL (≈ 39200 nM)
Acinetobacter baumannii; A. baumannii MMX 6974, colistinR
  MIC: 32 µg/mL (≈ 19600 nM)
Acinetobacter baumannii; NCTC13304, A. baumannii NCTC 13304, OXA-27
  MIC: > 64 µg/mL
[7]; ATCC27337, P. anaerobius ATCC 27337, read-out: MIC
  MIC: 0.008 µg/mL (≈ 4.9 nM)
[7]; P. anaerobius, 1 isolate, read-out: MIC
  MIC: 0.008 µg/mL (≈ 4.9 nM)
Staphylococcus hominis; ATCC27844, S. hominis ATCC 27844, read-out: MIC
  MIC: 0.015 µg/mL (≈ 9.19 nM)
Staphylococcus hominis; S. hominis, 1 isolate, read-out: MIC
  MIC: 0.015 µg/mL (≈ 9.19 nM)
Clostridioides difficile; ATCCBAA1805, C. difficile ATCC BAA-1805, ribo 027, read-out: MIC
  MIC: 0.06 µg/mL (≈ 36.8 nM)
Clostridioides difficile; ATCCBAA1870, C. difficile ATCC BAA-1870, NAP1;ribo 027, read-out: MIC
  MIC: 0.12 µg/mL (≈ 73.5 nM)
Clostridioides difficile; C. difficile ATTC 700057, toxAB-, read-out: MIC
  MIC: 0.06 µg/mL (≈ 36.8 nM)
Clostridioides difficile; C. difficile NAP1;ribo 027, 1 isolate, read-out: MIC
  MIC: 0.12 µg/mL (≈ 73.5 nM)
Clostridioides difficile; C. difficile ribo 027, 1 isolate, read-out: MIC
  MIC: 0.06 µg/mL (≈ 36.8 nM)
Clostridioides difficile; C. difficile toxAB-, 1 isolate, read-out: MIC
  MIC: 0.06 µg/mL (≈ 36.8 nM)
Streptococcus mitis; S. mitis MGS, MBC on one organism
  MIC:MBC: 1
Streptococcus mitis; ATCC49456, S. mitis (MGS) ATCC 49456, read-out: MIC
  MIC: 0.008 µg/mL (≈ 4.9 nM)
Streptococcus mitis; S. mitis (MGS) MMX 5798, read-out: MIC
  MIC: 0.03 µg/mL (≈ 18.4 nM)
Streptococcus mitis; S. mitis MGS, 2 isolates, read-out: MIC (median)
  MIC: 0.02 µg/mL (≈ 12.3 nM)
[8]; S. epidermidis MRSE, MBC on one organism
  MIC:MBC: 1
[8]; ATCC49134, S. epidermidis ATCC 49134, MSSE, read-out: MIC
  MIC: 0.015 µg/mL (≈ 9.19 nM)
[8]; MRSE, S. epidermidis MMX 762, MRSE, read-out: MIC
  MIC: 0.008 µg/mL (≈ 4.9 nM)
[8]; MRSE, S. epidermidis MMX 5145, MRSE, read-out: MIC
  MIC: 0.004 µg/mL (≈ 2.45 nM)
[8]; MRSE, S. epidermidis MRSE, 2 isolates, read-out: MIC (median)
  MIC: 0.008 µg/mL (≈ 4.9 nM)
[8]; S. epidermidis MSSE, 1 isolate, read-out: MIC
  MIC: 0.015 µg/mL (≈ 9.19 nM)
